Consider 25 molecules from patent US20080293647A1, “Combined Use Of Vitamin D Derivatives And Anti-Proliferative Agents For Treating Bladder Cancer” (priority 2004, published 2008).

The test system of data set [1] is human bladder cancer cell lines. The data set can be described thus: Combination of calcitriol with chemotherapeutic agents, bladder cancer cell line proliferation, combination index method. In kind it is cell-based. The following applies: agent combined with calcitriol; combination index method (CalcuSyn). The method, then: Proliferation was measured after an additional 96 h using CyQuant cell proliferation assay kit. Drug interactions (as shown in FIG. 1) were evaluated by the median-effect/isobologram method using CalcuSyn software (Biosoft, Cambridge, UK). Combination Indices (CI) were calculated using the non-constant ratio combination design, determining synergism or antagonism for each data point.

The test system of another data set is RT4. The data set can be described thus: Inhibition of cell proliferation, RT4 human bladder cancer cells (CyQuant). The following applies: read-out: Bladder Cancer Cell Lines IC50 (μM) RT4. In kind it is cell-based. The method, then:
(§1) After an additional 96-h culture, the medium was removed and the plates frozen at −80° C. Cell proliferation was evaluated using CyQuant cell proliferation assay kit from Molecular Probes (Eugene, Oreg.).

The subject of another data set is RT112. The data set can be described thus: Inhibition of cell proliferation, RT112 human bladder cancer cells (CyQuant). The data set is classed as cell-based. The following applies: read-out: Bladder Cancer Cell Lines IC50 (μM) RT112. The procedure:
as §1

The subject of another data set is T24. The data set can be described thus: Inhibition of cell proliferation, T24 human bladder cancer cells (CyQuant). The following applies: read-out: Bladder Cancer Cell Lines IC50 (μM) T24. The data set is classed as cell-based. The method, then:
as §1

Data set [2] can be described thus: Stability/compatibility of epirubicin and calcitriol solution for intravesical instillation (HPLC-UV). In kind it is physicochemical. The procedure: Approximately 12 mg of freeze-dried Farimorubicina® powder (approx. 2 mg of epirubicin) were dissolved in water to produce a concentrated stock solution. After vortexing, the concentrated stock was diluted 1:2 using a isotonic saline containing Tween 20 at 0.1% (w/v) to provide Sample B. After further vortexing, Sample B was stored at 4° C. until use. […] The solution was mixed and stored at −20° C. until use. 100 μl of the concentrated stock solution was then taken and diluted with 900 μl of isotonic saline containing Tween 20 0.1% (w/v). After shaking the sample was stored at 4° C. until use. […] Following mixing by vortexing, the sample was stored at 5° C. and analysed using HPLC chromatography after preparation (t=0) and after 2.5 hr (t=150 min). [table]

The mark [3] stands for this setting: Homo sapiens, RT-4, 96 h, 96-h culture.
[4] abbreviates: Homo sapiens, RT-112, 96 h, 96-h culture.
Setting [5] is: Homo sapiens, T-24, 96-h culture.
[6] abbreviates: combination (calcitriol 50 μg/ml + epirubicin 1 mg/ml), t = 0 min.
[7] abbreviates: combination (calcitriol 50 μg/ml + epirubicin 1 mg/ml), t = 150 min, stored at 5° C.
[8] abbreviates: single-component solution (epirubicin 1 mg/ml; calcitriol 100 μg/ml), HPLC peak area.

“And” between values parts separate entries of the source, which are not always exact repeats. Equal entries are not always repeated. Where two headings read alike, the source gives them in different places.

On to `N.N.[Cl][Pt][Cl]` [cisplatin], for which the “Synergism or antagonism on bladder cancer cell proliferation in combination with calcitriol” value (“Synergism or antagonism … with calcitriol” below) in data set [1] is “does not result in any additive or synergistic effect”.

Turning to `N.N.O=C([O-])C1(C(=O)[O-])CCC1.[Pt+2]` [carboplatin], the “Synergism or antagonism … with calcitriol” value in data set [1] was “does not result in any additive or synergistic effect”.

In the case of `C=C1/C(=C\C=C2/CCC[C@]3(C)C(C4(CCCC(C)(C)O)CC4)=CCC23)CC(O)C[C@@H]1O` (stereo partly drawn) [1α,25-Dihydroxy-16-ene-20-cyclopropyl-cholecalciferol], the results for the IC50 in the data set with RT4 (setting [3]) and in the data set on RT112 (setting [4]) were 2 µM and 27.6 µM, respectively.

For the molecule `C=C1/C(=C\C=C2/CCC[C@]3(C)C([C@@H](C)C/C=C/C(O)(CC)CC)=CC[C@@H]23)C[C@@H](O)C[C@@H]1F` [1-alpha-fluoro-25-hydroxy-16,23E-diene-26,27-bishomo-20-epi-cholecalciferol], the IC50 in the data set on RT4 (setting [3]) worked out at 16 µM; in the data set with T24 (setting [5]) it was 28 µM; in the data set on RT112 (setting [4]), 12 µM.

For `CC(C)(O)CCC[C@@H](CC[C@@H](O)C(C)(C)O)[C@H]1CC[C@H]2/C(=C/C=C3C[C@@H](O)C[C@H](O)C3)CCC[C@]12C` [1,25-Dihydroxy-21-(2R,3-dihydroxy-3-methyl-butyl)-20S-19-nor-cholecalciferol], the IC50 was found to be 72 µM with RT4 (Homo sapiens, RT-4, 96-h culture); 99.2 µM in the data set with T24 (setting [5]); 44 µM with RT112 (Homo sapiens, RT-112, 96-h culture).

Consider `C=C1/C(=C\C=C2/CCC[C@]3(C)C(C4(C/C=C\C(O)(C(F)(F)F)C(F)(F)F)CC4)=CCC23)CC(O)C[C@@H]1F` (stereo partly drawn) [1α-Fluoro-25-hydroxy-16,23Z-diene-20-cyclopropyl-26,27-hexafluoro-cholecalciferol], for which the IC50 with RT4 (96-h culture) came out at 3.1 µM; with RT112 (96-h culture), 21 µM.

For the molecule `C=C1/C(=C\C=C2/CCC[C@]3(C)C(C4(CC#CC(O)(C(F)(F)F)C(F)(F)F)CC4)=CCC23)CC(O)C[C@@H]1F` (stereo partly drawn) [1α-Fluoro-25-hydroxy-16-ene-20-cyclopropyl-23-yne-26,27-hexafluoro-cholecalciferol], the IC50 with RT4 (96-h culture) came out at 3.6 µM; in the data set with RT112 (96-h culture), 16.9 µM.

For `C[C@]12CCC/C(=C\C=C3\CC(O)C[C@H](O)C3)C1CC=C2C1(CC#CC(O)(C(F)(F)F)C(F)(F)F)CC1` (stereo partly shown) [14215-Dihydroxy-16-ene-20-cyclopropyl-23,41-yne-26,27-hexafluoro-19-nor-cholecalciferol], the IC50 stood at 5.2 µM in the data set on RT4 (setting [3]) and 22.7 µM in the data set on RT112 (setting [4]).

Turning to `C[C@]12CCC/C(=C\C=C3\CC(O)C[C@H](O)C3)C1CC=C2C1(C/C=C/C(O)(C(F)(F)F)C(F)(F)F)CC1` (stereo partly drawn) [1α,25-hydroxy-16-ene-20-cyclopropyl-23,24-E-ene-26,27-hexafluoro-19-nor-cholecalciferol], the 50% inhibitory concentration (IC50) is 4.6 µM with RT4 (setting [3]) and 14.5 µM with RT112 (setting [4]).

As for `CC(C)(O)CCCC1(C2=CCC3/C(=C/C=C4/CC(O)C[C@H](O)C4)CCC[C@]23C)CC1` (stereo partly drawn) [1α,25-Dihydroxy-16-ene-20-cyclopropyl-19-nor-cholecalciferol], the results for the IC50 in the data set with RT4 (setting [3]) and in the data set on RT112 (setting [4]) were 9.9 µM and more than 30 µM, respectively.

Take `C=C1/C(=C\C=C2/CCC[C@]3(C)C(C4(C/C=C/C(O)(C(F)(F)F)C(F)(F)F)CC4)=CCC23)CC(O)C[C@@H]1F` (stereo partly drawn) [1α-Fluoro-25-hydroxy-16,23E-diene-20-cyclopropyl-26,27-hexafluoro-cholecalciferol]: the IC50 in the data set on RT4 (96-h culture) is 3.6 µM; in the data set with RT112 (96-h culture), 17 µM.

On to `C=C1/C(=C\C=C2/CCC[C@]3(C)[C@@H]([C@@H](CCCC(C)(C)O)CCC(=O)C(C)(C)O)CC[C@@H]23)C[C@@H](O)C[C@@H]1O` [1,25-dihydroxy-20S-21(3-hydroxy-3-methyl-butyl)-24-keto-cholecalciferol], for which the values for the IC50 in the data set with RT4 (setting [3]) and with RT112 (setting [4]) were 8.3 µM and 25.5 µM, respectively.

On to `C[C@]12CCC/C(=C\C=C3\CC(O)C[C@H](O)C3)C1CC=C2C1(C/C=C\C(O)(C(F)(F)F)C(F)(F)F)CC1` (stereo partly drawn) [1α,25-Dihydroxy-16-ene-20-cyclopropyl-23,24-f-ene-2627-hexafluoro-19-nor-cholecalciferol], for which the IC50 was determined as 2.2 µM with RT4 (setting [3]) and 9.6 µM with RT112 (setting [4]).

As for `CC(=O)O[C@@H]1CC(=C/C=C2\CCC[C@]3(C)C([C@H](C)CCC(=O)C(C)(C)O)=CCC23)C[C@@H](OC(C)=O)C1` (stereo partly shown) [1,3-O-Diacetyl-1,25-Dihydroxy-16-ene-24-Keto-19-nor-Cholecalciferol], the IC50 in the data set on RT4 (setting [3]) was found to be 17 µM; with T24 (setting [5]), 31 µM; in the data set on RT112 (setting [4]), 6 µM.

As to `C=C1/C(=C\C=C2/CCC[C@@]3(C)C2CCC3C2(CCCC(C)(C)O)CC2)CC(OC(C)=O)C[C@@H]1OC(C)=O` (stereo partly shown) [1,3-Di-O-acetyl-1,25-dihydroxy-20-cyclopropyl-cholecalciferol], the IC50 with RT4 (setting [3]) is 10 µM; in the data set with T24 (setting [5]), 52.1 µM; with RT112 (setting [4]), 9 µM.

As for `Nc1ccn([C@@H]2O[C@H](CO)[C@@H](O)C2(F)F)c(=O)n1` [gemcitabine], the “Synergism or antagonism … with calcitriol” value in data set [1] is given as “strong antagonistic effect”.

On to `C=C1/C(=C\C=C2/CCC[C@]3(C)C(C4(C/C=C\C(O)(C(F)(F)F)C(F)(F)F)CC4)=CCC23)CC(O)C[C@@H]1O` (stereo partly drawn) [1α,25-Dihydroxy-16-ene-20-cyclopropyl-23,24-Z-ene-26,27-hexafluoro-cholecalciferol], for which the IC50 is 3.3 µM in the data set with RT4 (setting [3]) and 15.5 µM in the data set on RT112 (setting [4]).

With `C=C1/C(=C\C=C2/CCC[C@@]3(C)C2CCC3[C@@H](CCCC(C)(C)O)CCC(O)C(C)(C)O)C[C@@H](O)C[C@@H]1O` (stereo partly drawn) [1,25-Dihydroxy-21(2R,3-dihydroxy-3-methyl-butyl)-20S-Cholecalciferol], the results for the IC50 with RT4 (setting [3]), in the data set with T24 (setting [5]) and with RT112 (setting [4]) were 62 µM, 69.4 µM and 1 µM, respectively.

For `COc1cccc2c1C(=O)c1c(O)c3c(c(O)c1C2=O)C[C@@](O)(C(=O)CO)C[C@@H]3O[C@H]1C[C@H](N)[C@@H](O)[C@H](C)O1` [epirubicin], the “Area (230 nm)” value was 53425733 and 53877070 in data set [2] (setting [6]); 52245312 and 50817806 in data set [2] (setting [7]); 30443828 and 30511286 and 30555666 in data set [2] (setting [8]). Also, the “Area (254 nm)” value in data set [2] (setting [6]) is 44443024 and 44731107; in data set [2] (setting [7]), 43984488 and 43221785; in data set [2] (setting [8]), 23243121 and 23243599 and 23383366. Besides, the “Synergism or antagonism … with calcitriol” value in data set [1] is given as “strong synergistic effect”.

As to `C=C1/C(=C\C=C2/CCC[C@]3(C)C(C4(C/C=C/C(O)(C(F)(F)F)C(F)(F)F)CC4)=CCC23)CC(O)C[C@@H]1O` (stereo partly drawn) [1α,25-Dihydroxy-16-ene-20-cyclopropyl-23,24-E-ene-26,27-hexafluoro cholecalciferol], the IC50 with RT4 (setting [3]) was 2.3 µM; in the data set with RT112 (setting [4]) it was 10.6 µM.

For the molecule `C=C1/C(=C\C=C2/CCC[C@]3(C)C(C4(CC#CC(O)(C(F)(F)F)C(F)(F)F)CC4)=CCC23)CC(O)C[C@@H]1O` (stereo partly shown) [1,25-Dihydroxy-16-ene-20-cyclopropyl-23,24-yne-26,27 hexafluoro-cholecalciferol], the IC50 in the data set with RT4 (setting [3]) was determined as 1.7 µM; in the data set with RT112 (setting [4]) it was 13.8 µM.

“1,25-Dihydroxy-21-16,23Z-diene-26,27-hexafluoro-19-nor-cholecalciferol”: the IC50 came to 20 µM in the data set with RT4 (96-h culture), 58.7 µM with T24 (96-h culture) and 24 µM with RT112 (96-h culture).

Regarding `COc1cccc2c1C(=O)c1c(O)c3c(c(O)c1C2=O)C[C@@](O)(C(=O)CO)C[C@@H]3O[C@H]1C[C@H](N)[C@H](O)[C@H](C)O1` [doxorubicin], the “Synergism or antagonism … with calcitriol” value in data set [1] is reported as “strong synergistic effect”.

Take `CC(C)(O)CCC[C@@H](CCC(=O)C(C)(C)O)[C@H]1CC[C@H]2/C(=C/C=C3C[C@@H](O)C[C@H](O)C3)CCC[C@]12C` [1,25-dihydroxy-20S-21(3-hydroxy-3-methyl-butyl)-24-keto-19-nor-cholecalciferol]: the results for the IC50 with RT4 (setting [3]) and in the data set on RT112 (setting [4]) were 2.6 µM and more than 30 µM, respectively.

Regarding `C=C1/C(=C\C=C2/CCC[C@@]3(C)C2CCC3C(CCCC(C)(C)O)CCC(O)C(C)(C)O)C[C@@H](O)C[C@@H]1O` (stereo partly drawn) [1,25-Dihydroxy-21-(2R,3-dihydroxy-3-methyl-butyl)-20R-Cholecalciferol], the values for the IC50 in the data set on RT4 (setting [3]), in the data set with T24 (setting [5]) and in the data set on RT112 (setting [4]) were 71 µM, 57.9 µM and 25 µM, respectively.
